{"source": "paper PMC7259601", "about": "(PLoS ONE, 2020)", "key": {"[1]": {"target": "T1, BLT1 (LTB4) (h) (agonist radioligand) (Homo sapiens, UniProt Q15722)", "T1 construct": "purchased CEREP (Eurofins Cerep)", "T1 sequence (Q15722 whole entry)": "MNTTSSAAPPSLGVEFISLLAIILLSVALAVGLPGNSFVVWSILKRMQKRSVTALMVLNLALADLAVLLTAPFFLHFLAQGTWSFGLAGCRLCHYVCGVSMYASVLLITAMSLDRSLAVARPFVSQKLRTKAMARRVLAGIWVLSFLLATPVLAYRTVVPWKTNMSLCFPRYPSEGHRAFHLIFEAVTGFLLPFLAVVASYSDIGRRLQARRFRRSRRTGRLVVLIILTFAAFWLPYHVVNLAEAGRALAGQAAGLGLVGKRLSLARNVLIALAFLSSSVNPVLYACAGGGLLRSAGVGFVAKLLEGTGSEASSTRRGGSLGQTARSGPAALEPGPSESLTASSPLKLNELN", "assay": "CEREP Diversity Panel", "format": "binding", "experimental": "(§1) […]. MAO-A inhibition at 10 μM was 37%, in line with internal data."}, "[2]": {"target": "T2, beta 1 (h) (agonist radioligand) (Homo sapiens, UniProt P08588)", "T2 construct": "purchased CEREP (Eurofins Cerep)", "T2 sequence (P08588 whole entry)": "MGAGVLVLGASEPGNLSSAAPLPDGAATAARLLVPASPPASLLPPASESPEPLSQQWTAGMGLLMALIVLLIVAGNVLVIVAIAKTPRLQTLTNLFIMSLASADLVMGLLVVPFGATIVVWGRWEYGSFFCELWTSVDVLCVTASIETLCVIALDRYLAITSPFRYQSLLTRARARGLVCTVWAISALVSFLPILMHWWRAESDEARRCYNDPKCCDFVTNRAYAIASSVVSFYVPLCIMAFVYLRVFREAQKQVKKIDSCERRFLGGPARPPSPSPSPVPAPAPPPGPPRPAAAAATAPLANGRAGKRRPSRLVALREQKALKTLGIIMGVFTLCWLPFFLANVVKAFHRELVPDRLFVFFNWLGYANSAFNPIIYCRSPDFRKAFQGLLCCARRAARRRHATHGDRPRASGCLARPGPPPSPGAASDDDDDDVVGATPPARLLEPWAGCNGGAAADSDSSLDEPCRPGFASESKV", "assay": "CEREP Diversity Panel", "format": "binding", "experimental": "as §1"}, "[3]": {"target": "T3, AT2 (h) (agonist radioligand) (Homo sapiens, UniProt P50052)", "T3 construct": "purchased CEREP (Eurofins Cerep)", "T3 sequence (P50052 whole entry)": "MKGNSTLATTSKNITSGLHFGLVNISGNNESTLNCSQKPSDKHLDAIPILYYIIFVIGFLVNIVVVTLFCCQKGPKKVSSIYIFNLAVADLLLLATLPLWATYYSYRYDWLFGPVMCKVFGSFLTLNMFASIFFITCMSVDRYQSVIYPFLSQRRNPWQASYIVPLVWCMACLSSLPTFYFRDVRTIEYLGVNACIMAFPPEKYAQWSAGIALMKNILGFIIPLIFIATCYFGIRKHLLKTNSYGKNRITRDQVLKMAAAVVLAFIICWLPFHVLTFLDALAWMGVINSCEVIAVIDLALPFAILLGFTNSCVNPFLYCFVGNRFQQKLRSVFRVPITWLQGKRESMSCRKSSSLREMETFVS", "assay": "CEREP Diversity Panel", "format": "binding", "experimental": "as §1"}, "[4]": {"target": "T4, ETB (h) (agonist radioligand) (Homo sapiens, UniProt P24530)", "T4 construct": "purchased CEREP (Eurofins Cerep)", "assay": "CEREP Diversity Panel", "format": "binding", "experimental": "as §1"}, "[5]": {"target": "T5, GR (h) (agonist radioligand) (Homo sapiens, UniProt P04150)", "T5 construct": "purchased CEREP (Eurofins Cerep)", "T5 sequence (P04150 whole entry)": "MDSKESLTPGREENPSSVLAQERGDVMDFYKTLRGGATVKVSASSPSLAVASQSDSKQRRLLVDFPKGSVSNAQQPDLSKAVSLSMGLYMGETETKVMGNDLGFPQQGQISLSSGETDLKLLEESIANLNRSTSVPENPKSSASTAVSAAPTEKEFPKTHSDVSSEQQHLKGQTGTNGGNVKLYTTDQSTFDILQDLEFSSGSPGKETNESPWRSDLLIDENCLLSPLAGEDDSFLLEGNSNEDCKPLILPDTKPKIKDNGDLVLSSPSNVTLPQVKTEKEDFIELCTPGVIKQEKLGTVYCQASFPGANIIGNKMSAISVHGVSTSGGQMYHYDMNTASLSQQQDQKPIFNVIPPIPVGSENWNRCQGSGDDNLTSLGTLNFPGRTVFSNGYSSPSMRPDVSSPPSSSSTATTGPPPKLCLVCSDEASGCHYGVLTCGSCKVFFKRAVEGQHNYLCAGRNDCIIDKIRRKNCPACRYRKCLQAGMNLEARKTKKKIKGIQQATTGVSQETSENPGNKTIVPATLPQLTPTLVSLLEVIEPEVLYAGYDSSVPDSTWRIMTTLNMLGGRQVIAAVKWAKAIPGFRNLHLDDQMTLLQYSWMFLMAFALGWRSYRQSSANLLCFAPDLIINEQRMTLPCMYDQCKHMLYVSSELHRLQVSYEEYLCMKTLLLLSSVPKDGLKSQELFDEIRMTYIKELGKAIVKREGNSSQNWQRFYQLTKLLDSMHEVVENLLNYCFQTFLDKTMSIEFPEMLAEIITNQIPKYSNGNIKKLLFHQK", "assay": "CEREP Diversity Panel", "format": "binding", "experimental": "as §1"}, "[6]": {"target": "T6, IP (PGI2) (h) (agonist radioligand) (Homo sapiens, UniProt P43119)", "T6 construct": "purchased CEREP (Eurofins Cerep)", "T6 sequence (P43119 whole entry)": "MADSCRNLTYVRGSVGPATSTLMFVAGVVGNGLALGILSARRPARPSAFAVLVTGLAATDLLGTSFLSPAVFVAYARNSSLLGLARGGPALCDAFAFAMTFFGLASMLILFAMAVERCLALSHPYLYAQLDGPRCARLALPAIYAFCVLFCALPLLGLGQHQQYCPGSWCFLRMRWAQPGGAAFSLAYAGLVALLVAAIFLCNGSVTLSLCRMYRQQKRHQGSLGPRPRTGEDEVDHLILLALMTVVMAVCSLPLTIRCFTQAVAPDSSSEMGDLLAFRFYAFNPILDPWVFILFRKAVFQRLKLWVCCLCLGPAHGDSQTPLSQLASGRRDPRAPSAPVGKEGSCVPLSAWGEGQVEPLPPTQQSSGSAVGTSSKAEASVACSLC", "assay": "CEREP Diversity Panel", "format": "binding", "experimental": "as §1"}, "[7]": {"target": "T7, CB2 (h) (agonist radioligand) (Homo sapiens, UniProt P34972)", "T7 construct": "purchased CEREP (Eurofins Cerep)", "assay": "CEREP Diversity Panel", "format": "binding", "experimental": "as §1"}, "[8]": {"target": "T8, EP2 (h) (agonist radioligand) (Homo sapiens, UniProt P43116)", "T8 construct": "purchased CEREP (Eurofins Cerep)", "T8 sequence (P43116 whole entry)": "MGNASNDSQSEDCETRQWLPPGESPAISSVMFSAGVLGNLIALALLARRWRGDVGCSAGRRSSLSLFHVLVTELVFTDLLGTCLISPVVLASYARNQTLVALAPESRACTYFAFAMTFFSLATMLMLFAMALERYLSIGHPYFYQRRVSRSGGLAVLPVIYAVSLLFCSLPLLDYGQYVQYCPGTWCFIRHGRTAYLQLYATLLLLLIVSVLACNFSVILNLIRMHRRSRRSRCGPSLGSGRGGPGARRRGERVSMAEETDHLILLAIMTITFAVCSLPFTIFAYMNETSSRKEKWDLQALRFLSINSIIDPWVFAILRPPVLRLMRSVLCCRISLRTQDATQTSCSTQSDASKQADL", "assay": "CEREP Diversity Panel", "format": "binding", "experimental": "as §1"}, "[9]": {"target": "T9, NK2 (h) (agonist radioligand) (Homo sapiens, UniProt P21452)", "T9 construct": "purchased CEREP (Eurofins Cerep)", "T9 sequence (P21452 whole entry)": "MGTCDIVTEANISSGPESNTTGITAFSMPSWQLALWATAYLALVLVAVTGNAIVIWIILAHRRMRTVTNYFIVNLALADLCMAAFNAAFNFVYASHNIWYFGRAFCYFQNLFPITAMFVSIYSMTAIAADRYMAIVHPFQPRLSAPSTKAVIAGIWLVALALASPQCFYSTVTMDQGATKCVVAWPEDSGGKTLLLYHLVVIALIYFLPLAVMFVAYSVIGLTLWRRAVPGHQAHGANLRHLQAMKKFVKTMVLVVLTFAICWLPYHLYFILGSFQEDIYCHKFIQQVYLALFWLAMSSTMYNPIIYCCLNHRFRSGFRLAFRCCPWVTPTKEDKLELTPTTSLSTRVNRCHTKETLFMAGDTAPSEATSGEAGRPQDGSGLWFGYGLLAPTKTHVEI", "assay": "CEREP Diversity Panel", "format": "binding", "experimental": "as §1"}, "[10]": {"target": "T10, V2 (h) (agonist radioligand) (Homo sapiens, UniProt P30518)", "T10 construct": "purchased CEREP (Eurofins Cerep)", "T10 sequence (P30518 whole entry)": "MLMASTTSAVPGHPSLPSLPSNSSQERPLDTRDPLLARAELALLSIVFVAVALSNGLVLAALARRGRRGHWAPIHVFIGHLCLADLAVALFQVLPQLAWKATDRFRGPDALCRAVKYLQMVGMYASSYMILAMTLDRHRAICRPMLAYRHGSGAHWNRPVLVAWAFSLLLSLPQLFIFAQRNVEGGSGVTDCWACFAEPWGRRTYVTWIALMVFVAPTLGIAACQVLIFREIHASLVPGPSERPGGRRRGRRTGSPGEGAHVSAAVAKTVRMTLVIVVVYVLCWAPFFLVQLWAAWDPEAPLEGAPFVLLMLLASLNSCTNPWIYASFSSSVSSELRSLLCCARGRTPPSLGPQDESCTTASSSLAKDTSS", "assay": "CEREP Diversity Panel", "format": "binding", "experimental": "as §1"}, "[11]": {"target": "T11, CB1 (h) (agonist radioligand) (Homo sapiens, UniProt P21554)", "T11 construct": "purchased CEREP (Eurofins Cerep)", "assay": "CEREP Diversity Panel", "format": "binding", "experimental": "as §1"}, "[12]": {"target": "T12, B1 (h) (agonist radioligand) (Homo sapiens, UniProt P46663)", "T12 construct": "purchased CEREP (Eurofins Cerep)", "assay": "CEREP Diversity Panel", "format": "binding", "experimental": "as §1"}, "[13]": {"target": "T13, A2A (h) (agonist radioligand) (Homo sapiens, UniProt P29274)", "T13 construct": "purchased CEREP (Eurofins Cerep)", "assay": "CEREP Diversity Panel", "format": "binding", "experimental": "as §1"}, "[14]": {"target": "T14, D2S (h) (antagonist radioligand) (Homo sapiens, UniProt P14416)", "T14 construct": "purchased CEREP (Eurofins Cerep)", "assay": "CEREP Diversity Panel", "format": "binding", "experimental": "as §1"}, "[15]": {"target": "T15, CCK2 (CCKB) (h) (agonist radioligand) (Homo sapiens, UniProt P32239)", "T15 construct": "purchased CEREP (Eurofins Cerep)", "assay": "CEREP Diversity Panel", "format": "binding", "experimental": "as §1"}, "[16]": {"target": "T16, H2 (h) (antagonist radioligand) (Homo sapiens, UniProt P25021)", "T16 construct": "purchased CEREP (Eurofins Cerep)", "T16 sequence (P25021 whole entry)": "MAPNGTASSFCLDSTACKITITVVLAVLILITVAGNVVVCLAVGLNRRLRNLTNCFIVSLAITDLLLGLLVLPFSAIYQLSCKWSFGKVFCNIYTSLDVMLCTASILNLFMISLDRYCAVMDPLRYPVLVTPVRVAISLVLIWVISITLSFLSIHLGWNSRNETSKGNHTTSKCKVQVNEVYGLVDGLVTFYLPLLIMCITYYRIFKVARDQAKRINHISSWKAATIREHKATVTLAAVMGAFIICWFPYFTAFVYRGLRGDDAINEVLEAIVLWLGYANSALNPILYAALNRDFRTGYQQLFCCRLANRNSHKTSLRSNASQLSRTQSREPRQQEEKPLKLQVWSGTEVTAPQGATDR", "assay": "CEREP Diversity Panel", "format": "binding", "experimental": "as §1"}, "[17]": {"target": "T17, dopamine transporter (h) (antagonist radioligand) (Homo sapiens, UniProt Q01959)", "T17 construct": "purchased CEREP (Eurofins Cerep)", "assay": "CEREP Diversity Panel", "format": "binding", "experimental": "as §1"}, "[18]": {"target": "T18, V1a (h) (agonist radioligand) (Homo sapiens, UniProt P37288)", "T18 construct": "purchased CEREP (Eurofins Cerep)", "assay": "CEREP Diversity Panel", "format": "binding", "experimental": "as §1"}, "[19]": {"target": "T19, D1 (h) (antagonist radioligand) (Homo sapiens, UniProt P21728)", "T19 construct": "purchased CEREP (Eurofins Cerep)", "T19 sequence (P21728 whole entry)": "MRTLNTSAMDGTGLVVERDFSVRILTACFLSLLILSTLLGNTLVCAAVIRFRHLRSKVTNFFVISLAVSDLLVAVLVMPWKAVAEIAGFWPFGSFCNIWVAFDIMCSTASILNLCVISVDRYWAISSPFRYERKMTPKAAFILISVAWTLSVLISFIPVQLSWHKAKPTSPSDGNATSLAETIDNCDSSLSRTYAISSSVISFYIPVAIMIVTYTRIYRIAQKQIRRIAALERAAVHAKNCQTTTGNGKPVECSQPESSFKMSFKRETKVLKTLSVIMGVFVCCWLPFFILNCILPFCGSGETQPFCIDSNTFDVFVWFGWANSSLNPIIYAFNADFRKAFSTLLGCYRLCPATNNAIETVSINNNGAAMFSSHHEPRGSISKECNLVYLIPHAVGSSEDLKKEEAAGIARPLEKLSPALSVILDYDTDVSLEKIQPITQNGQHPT", "assay": "CEREP Diversity Panel", "format": "binding", "experimental": "as §1"}, "[20]": {"target": "T20, A3 (h) (agonist radioligand) (Homo sapiens, UniProt P0DMS8)", "T20 construct": "purchased CEREP (Eurofins Cerep)", "assay": "CEREP Diversity Panel", "format": "binding", "experimental": "as §1"}, "[21]": {"target": "T21, norepinephrine transporter (h) (antagonist radioligand) (Homo sapiens, UniProt P23975)", "T21 construct": "purchased CEREP (Eurofins Cerep)", "T21 sequence (P23975 whole entry)": "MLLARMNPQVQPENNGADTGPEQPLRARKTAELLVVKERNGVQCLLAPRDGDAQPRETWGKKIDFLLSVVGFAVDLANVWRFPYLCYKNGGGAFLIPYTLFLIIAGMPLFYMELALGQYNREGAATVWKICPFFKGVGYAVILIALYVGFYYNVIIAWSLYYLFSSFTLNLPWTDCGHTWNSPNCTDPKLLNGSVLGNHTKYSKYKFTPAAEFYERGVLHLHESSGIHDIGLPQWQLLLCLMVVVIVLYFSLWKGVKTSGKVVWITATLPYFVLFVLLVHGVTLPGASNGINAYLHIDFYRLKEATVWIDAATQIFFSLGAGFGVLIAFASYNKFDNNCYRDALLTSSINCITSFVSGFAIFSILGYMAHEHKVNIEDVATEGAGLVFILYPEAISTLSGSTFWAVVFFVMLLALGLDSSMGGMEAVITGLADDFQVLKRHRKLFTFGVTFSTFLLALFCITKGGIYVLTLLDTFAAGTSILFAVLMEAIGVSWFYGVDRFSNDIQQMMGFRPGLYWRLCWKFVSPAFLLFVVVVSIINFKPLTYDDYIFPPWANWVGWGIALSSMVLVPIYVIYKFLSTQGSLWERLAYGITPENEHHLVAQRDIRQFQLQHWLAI", "assay": "CEREP Diversity Panel", "format": "binding", "experimental": "as §1"}, "[22]": {"target": "T22, beta 2 (h) (agonist radioligand) (Homo sapiens, UniProt P07550)", "T22 construct": "purchased CEREP (Eurofins Cerep)", "assay": "CEREP Diversity Panel", "format": "binding", "experimental": "as §1"}, "[23]": {"test_system": "AMPA (agonist radioligand)", "assay": "CEREP Diversity Panel", "format": "binding", "design": "dose or concentration left out as unconfirmed", "experimental": "as §1"}, "[24]": {"test_system": "GABA transporter (antagonist radioligand)", "assay": "CEREP Diversity Panel", "format": "binding", "design": "dose or concentration left out as unconfirmed", "experimental": "as §1"}, "[25]": {"test_system": "Na+ channel (site 2) (antagonist radioligand)", "assay": "CEREP Diversity Panel", "format": "binding", "design": "dose or concentration left out as unconfirmed", "experimental": "as §1"}, "[26]": {"test_system": "opioid (non-selective) (antagonist radioligand)", "assay": "CEREP Diversity Panel", "format": "binding", "design": "dose or concentration left out as unconfirmed", "experimental": "as §1"}, "[27]": {"test_system": "s (non-selective) (agonist radioligand)", "assay": "CEREP Diversity Panel", "format": "binding", "design": "dose or concentration left out as unconfirmed", "experimental": "as §1"}, "I1 (agonist radioligand)": {"test_system": "I1 (agonist radioligand)", "assay": "CEREP Diversity Panel", "format": "binding", "design": "dose or concentration left out as unconfirmed", "experimental": "as §1"}, "KDM1A": {"test_system": "KDM1A", "assay": "KDM1A target engagement in brain cortex (chemoprobe ELISA)", "format": "in vivo, SAMP8 mice", "conditions": "end of 2 month treatment", "experimental": "Native protein extracts of cells or tissues were obtained in presence of 25 nM OG-881 chemoprobe according the protocol described in Mascaró et al..\nLuminescent ELISA: for quantification of total amount of KDM1A protein (TOTAL KDM1A), Luminunc Plates Maxisorp (NUNC; #436110) were coated with a monoclonal anti-KDM1A antibody (Abcam; #ab53269) at 2 µg/mL in PBS. For quantification of the fraction not bound to inhibitor (FREE KDM1A), plates were coated with streptavidin (Promega Biotech Ibérica; #Z7041) at 10 µg/mL in PBS. Coating was performed at 4°C O/N. Wells were washed 3 times in PBS, 0.1% Tween-20 and blocked with PBS-BSA 1% (Sigma; #A3059) for 2 hr. A KDM1A calibration curve of full length rKDM1A (Active Motif; #31334) diluted in PBS was included in each plate. Plates were then incubated 1 hr at RT and washed 5 times. […] Plates were centrifuged during 30 sec to 1,500 x g, shaken for 1 min at 100rpm and incubated inside the micropate reader (Infinite 200, Tecan) for 3 min at 25 °C. The relative luminescence units (RLU) readouts were acquired using a 1000 msec integration time and 150 msec settle time.\nAll assays were run as triplicate technical replicates (n = 3). After raw data processing (robust elimination of outliers according to Grubbs criteria and subtraction of blank signal on technical replicates), the target engagement was calculated as […]"}}, "data": [{"smiles": "Nc1nnc(CN[C@@H]2C[C@H]2c2ccc(OCc3ccccc3)cc2)o1", "note": "[ORY-2001, vafidemstat]", "values": [{"measurement": "inhibition at 10 µM", "setting": "[1]", "value": 33, "unit": "%"}, {"measurement": "inhibition at 10 µM", "setting": "[2]", "value": 7, "unit": "%"}, {"measurement": "inhibition at 10 µM", "setting": "[3]", "value": -6, "unit": "%"}, {"measurement": "inhibition at 10 µM", "setting": "[4]", "value": -8, "unit": "%"}, {"measurement": "inhibition at 10 µM", "setting": "[5]", "value": -9, "unit": "%"}, {"measurement": "inhibition at 10 µM", "setting": "[6]", "value": 31, "unit": "%"}, {"measurement": "inhibition at 10 µM", "setting": "[7]", "value": 14, "unit": "%"}, {"measurement": "inhibition at 10 µM", "setting": "[8]", "value": 18, "unit": "%"}, {"measurement": "inhibition at 10 µM", "setting": "[9]", "value": 2, "unit": "%"}, {"measurement": "inhibition at 10 µM", "setting": "[10]", "value": -12, "unit": "%"}, {"measurement": "inhibition at 10 µM", "setting": "[11]", "value": 5, "unit": "%"}, {"measurement": "inhibition at 10 µM", "setting": "[12]", "value": -1, "unit": "%"}, {"measurement": "inhibition at 10 µM", "setting": "[13]", "value": -8, "unit": "%"}, {"measurement": "inhibition at 10 µM", "setting": "[14]", "value": -8, "unit": "%"}, {"measurement": "inhibition at 10 µM", "setting": "[15]", "value": -15, "unit": "%"}, {"measurement": "inhibition at 10 µM", "setting": "[16]", "value": -3, "unit": "%"}, {"measurement": "inhibition at 10 µM", "setting": "[17]", "value": 33, "unit": "%"}, {"measurement": "inhibition at 10 µM", "setting": "[18]", "value": 1, "unit": "%"}, {"measurement": "inhibition at 10 µM", "setting": "[19]", "value": -5, "unit": "%"}, {"measurement": "inhibition at 10 µM", "setting": "[20]", "value": -4, "unit": "%"}, {"measurement": "inhibition at 10 µM", "setting": "[21]", "value": 26, "unit": "%"}, {"measurement": "inhibition at 10 µM", "setting": "[22]", "value": 5, "unit": "%"}, {"measurement": "% inhibition", "setting": "[23]", "value": -2, "unit": "%"}, {"measurement": "% inhibition", "setting": "[24]", "value": -3, "unit": "%"}, {"measurement": "% inhibition", "setting": "[25]", "value": 12, "unit": "%"}, {"measurement": "% inhibition", "setting": "[26]", "value": -2, "unit": "%"}, {"measurement": "% inhibition", "setting": "[27]", "value": 9, "unit": "%"}, {"measurement": "% inhibition", "setting": "I1 (agonist radioligand)", "value": 26, "unit": "%"}, {"measurement": "KDM1A target engagement in cortex", "setting": "KDM1A", "value": "correlated with the observed functional effects on memory"}]}]}
